Measured values taken from US10590113B2, “6-hydroxy-4-oxo-1,4-dihydropyrimidine-5-carboxamides as APJ agonists” (priority 2016, dated 2020).
pEC50: −log10 of the molar value.

target: T1, human APJ receptor (Homo sapiens, UniProt P35414); experiment: Intracellular cAMP Accumulation Assay (APJ hcAMP, HTRF); assay type: cell-based; details: human APJ, cAMP accumulation; potency range class; read-out: hAPJ cAMP EC50 Potency range
T1 construct: expressed in transfected cells; host or cells: HEK293
T1 sequence (P35414 1-380): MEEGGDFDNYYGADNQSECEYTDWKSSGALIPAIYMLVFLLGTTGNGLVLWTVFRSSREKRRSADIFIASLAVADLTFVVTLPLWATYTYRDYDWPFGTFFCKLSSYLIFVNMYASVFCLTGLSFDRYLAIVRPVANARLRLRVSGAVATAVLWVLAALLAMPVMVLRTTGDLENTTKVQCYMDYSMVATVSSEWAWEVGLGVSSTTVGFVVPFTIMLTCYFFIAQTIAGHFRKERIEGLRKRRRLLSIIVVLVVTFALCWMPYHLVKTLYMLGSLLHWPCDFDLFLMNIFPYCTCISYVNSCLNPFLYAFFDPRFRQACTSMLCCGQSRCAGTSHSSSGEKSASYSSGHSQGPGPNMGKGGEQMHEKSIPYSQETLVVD
In short: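 Stably transfected HEK293 cells (5,000/well) incubated 30 min at room temperature with serially diluted compound, […] and 2 μM forskolin. cAMP measured by HTRF after 60 min with detection reagents, quantified against a cAMP standard curve; EC50 from variable-slope sigmoidal fit of inhibition of forskolin-stimulated cAMP.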

pEC50	SMILES
8.00 to 11.00	COc1cccc(OC)c1-n1c(CC2CC2)nc(=O)c(C(=O)N2CCC(c3ccc(Cl)cc3)C2)c1O (single isomer, unassigned) [Example 228, 5-[3-(4-chlorophenyl)pyrrolidine-1-carbonyl]-2-(cyclopropylmethyl)-1-(2,6-dimethoxyphenyl)-6-hydroxy-1,4-dihydropyrimidin-4-one]
8.00 to 11.00	COc1cccc(OC)c1-n1c(-c2cncc(Cl)c2)nc(=O)c(C(=O)N2CCC(c3c(F)cccc3F)C2)c1O (single isomer, unassigned) [Example 247, 2-(5-chloropyridin-3-yl)-5-[3-(2,6-difluorophenyl)pyrrolidine-1-carbonyl]-1-(2,6-dimethoxyphenyl)-6-hydroxy-1,4-dihydropyrimidin-4-one]
7.00 to 8.00	COc1cccc(OC)c1-n1c(-c2ccc(F)cc2)nc(=O)c(C(=O)N2CCC(c3ccc(Cl)cc3)C2)c1O (single isomer, unassigned) [Example 223]
8.00 to 11.00	CCOCc1nc(=O)c(C(=O)N2CCC(c3ccccc3C#N)C2)c(O)n1-c1c(OC)cccc1OC (single isomer, unassigned) [Example 363, 2-(1-(1-(2,6-dimethoxyphenyl)-2-(ethoxymethyl)-6-hydroxy-4-oxo-1,4-dihydropyrimidine-5-carbonyl)pyrrolidin-3-yl)benzonitrile]
8.00 to 11.00	CCc1cccc(CC)c1-n1c(-c2ccn(C3CC3)n2)nc(=O)c(C(=O)N2CC[C@@H](c3ccccc3)C2)c1O [Example 316, 2-(1-cyclopropyl-1H-pyrazol-3-yl)-1-(2,6-diethylphenyl)-6-hydroxy-5-[(3S)-3-phenylpyrrolidine-1-carbonyl]-1,4-dihydropyrimidin-4-one]
8.00 to 11.00	CCOCc1nc(=O)c(C(=O)N2CCC(c3c(F)cccc3F)C2)c(O)n1-c1c(OC)cccc1OC (single isomer, unassigned) [Example 353, 5-[3-(2,6-difluorophenyl)pyrrolidine-1-carbonyl]-1-(2,6-dimethoxyphenyl)-2-(ethoxymethyl)-6-hydroxy-1,4-dihydropyrimidin-4-one]
8.00 to 11.00	COc1cccc(OC)c1-n1c(-c2csc(C)n2)nc(=O)c(C(=O)N2CCC(Oc3cccc(F)c3F)CC2)c1O [Example 277, 5-[4-(2,3-difluorophenoxy)piperidine-1-carbonyl]-1-(2,6-dimethoxyphenyl)-6-hydroxy-2-(2-methyl-1,3-thiazol-4-yl)-1,4-dihydropyrimidin-4-one]
8.00 to 11.00	CCc1cccc(CC)c1-n1c(-c2nc(C)cs2)nc(=O)c(C(=O)N2CCC(c3ncc(Cl)cc3F)C2)c1O (single isomer, unassigned) [Example 306, 5-[3-(5-chloro-3-fluoropyridin-2-yl)pyrrolidine-1-carbonyl]-1-(2,6-diethylphenyl)-6-hydroxy-2-(4-methyl-1,3-thiazol-2-yl)-1,4-dihydropyrimidin-4-one]
8.00 to 11.00	CCc1cccc(CC)c1-n1c(-c2csc(C)n2)nc(=O)c(C(=O)N2CCC(c3ncc(Cl)cc3F)C2)c1O (single isomer, unassigned) [Example 296, 5-[3-(5-chloro-3-fluoropyridin-2-yl)pyrrolidine-1-carbonyl]-1-(2,6-diethylphenyl)-6-hydroxy-2-(2-methyl-1,3-thiazol-4-yl)-1,4-dihydropyrimidin-4-one]

same assay, conditions: human APJ, intracellular cAMP accumulation; read-out: hAPJ cAMP EC50 Potency range

pEC50	SMILES
7.00 to 8.00	CCCCc1nc(=O)c(C(=O)N2CC[C@H](c3ccccc3)C2)c(O)n1C(C)c1ccncc1 (stereo partly drawn) [Example 148, 2-butyl-6-hydroxy-5-[(3R)-3-phenylpyrrolidine-1-carbonyl]-3-[1-(pyridin-4-yl)ethyl]3,4-dihydropyrimidin-4-one]
8.00 to 11.00	COc1cccc(OC)c1-n1c(CCC2CC2)nc(=O)c(C(=O)N2CCC(c3ncc(F)cc3F)C2)c1O (single isomer, unassigned) [Example 168, 2-(2-cyclopropylethyl)-5-[3-(3,5-difluoropyridin-2-yl)pyrrolidine-1-carbonyl]-1-(2,6-dimethoxyphenyl)-6-hydroxy-1,4-dihydropyrimidin-4-one]
8.00 to 11.00	CC[C@@H](c1cc(F)cc(F)c1)n1c(-c2ccn(C)n2)nc(=O)c(C(=O)N2CCC(c3ccccc3F)C2)c1O (single isomer, unassigned) [Example 193]
8.00 to 11.00	CC[C@@H](c1cc(F)cc(F)c1)n1c(-c2cnn(C)c2)nc(=O)c(C(=O)N2CCC(c3ncc(F)cc3F)C2)c1O (single isomer, unassigned) [Example 217]
6.52 to 7.00	CCCCc1nc(=O)c(C(=O)N2CC[C@@H](c3ccccc3)C2)c(O)n1C(C)C [Example 159, 2-butyl-6-hydroxy-5-[(3S)-3-phenylpyrrolidine-1-carbonyl]-3-(propan-2-yl)-3,4-dihydropyrimidin-4-one]
8.00 to 11.00	CC[C@@H](c1cc(F)cc(F)c1)n1c(-c2ccn(C)n2)nc(=O)c(C(=O)N2CCC(c3ccc(F)cc3)C2)c1O (single isomer, unassigned) [Example 194]
8.00 to 11.00	COc1cccc(OC)c1-n1c(CC2CC2)nc(=O)c(C(=O)N2CCC(c3cccc(Cl)c3)C2)c1O (racemic) [Example 28, 5-(3-(3-chlorophenyl)pyrrolidine-1-carbonyl)-2-(cyclopropylmethyl)-1-(2,6-dimethoxyphenyl)-6-hydroxypyrimidin-4(1H)-one]
8.00 to 11.00	CCCCc1nc(=O)c(C(=O)N2CCC(c3ccccc3F)C2)c(O)n1-c1c(OC)cccc1OC (single isomer, unassigned) [Example 53, 2-butyl-1-(2,6-dimethoxyphenyl)-5-[3-(2-fluorophenyl)pyrrolidine-1-carbonyl]-6-hydroxy-1,4-dihydropyrimidin-4-one]
8.00 to 11.00	CCc1cccc(CC)c1-n1c(COC(C)C)nc(=O)c(C(=O)N2CCC(c3ccccc3F)C2)c1O (single isomer, unassigned) [Example 25, 1-(2,6-diethylphenyl)-5-(3-(2-fluorophenyl)pyrrolidine-1-carbonyl)-6-hydroxy-2-(isopropoxymethyl) pyrimidin-4(1H)-one]
7.00 to 8.00	CCCCc1nc(=O)c(C(=O)N2CC[C@H](c3ccccc3)C2)c(O)n1[C@@H](CCC)c1ccccc1 [Example 137, 2-butyl-6-hydroxy-3-[(1S)-1-phenylbutyl]-5-[(3R)-3-phenylpyrrolidine-1-carbonyl]-3,4-dihydropyrimidin-4-one]
8.00 to 11.00	COc1cccc(OC)c1-n1c(COC(C)C)nc(=O)c(C(=O)N2CCC(c3cccc(F)c3)C2)c1O (single isomer, unassigned) [Example 97, 1-(2,6-dimethoxyphenyl)-5-[3-(3-fluorophenyl)pyrrolidine-1-carbonyl]-6-hydroxy-2-[(propan-2-yloxy)methyl]-1,4-dihydropyrimidin-4-one]
8.00 to 11.00	CCCCc1nc(=O)c(C(=O)N2CCC(c3ccccc3F)C2)c(O)n1[C@@H](CC)c1ccccc1 (stereo partly drawn) [Example 114, 2-butyl-5-[3-(2-fluorophenyl)pyrrolidine-1-carbonyl]-6-hydroxy-3-[(1S)-1-phenylpropyl]-3,4-dihydropyrimidin-4-one]
8.00 to 11.00	CCCCc1nc(=O)c(C(=O)N2CC[C@@H](c3ccccc3)C2)c(O)n1[C@@H](C)c1cccc(OC)c1 [Example 120, 2-butyl-6-hydroxy-3-[(1S)-1-(3-methoxyphenyl)ethyl]-5-[(3S)-3-phenylpyrrolidine-1-carbonyl]-3,4-dihydropyrimidin-4-one]
8.00 to 11.00	COc1cccc(OC)c1-n1c(COC2CC2)nc(=O)c(C(=O)N2CCC(c3ccccc3F)C2)c1O (single isomer, unassigned) [Example 10, 2-(cyclopropoxymethyl)-1-(2,6-dimethoxyphenyl)-5-(3-(2-fluorophenyl)pyrrolidine-1-carbonyl)-6-hydroxypyrimidin-4(1H)-one]
7.00 to 8.00	CCCCc1nc(=O)c(C(=O)N2Cc3ccncc3C2)c(O)n1-c1c(OC)cccc1OC [Example 60, 2-butyl-1-(2,6-dimethoxyphenyl)-6-hydroxy-5-{1H,2H,3H-pyrrolo[3,4-c]pyridine-2-carbonyl}-1,4-dihydropyrimidin-4-one]
8.00 to 11.00	CCCCc1nc(=O)c(C(=O)N2CC[C@@H](c3ccccc3)C2)c(O)n1[C@@H](C)c1ccccc1 [Example 125, 2-butyl-6-hydroxy-3-[(1S)-1-phenylethyl]-5-[(3S)-3-phenylpyrrolidine-1-carbonyl]-3,4-dihydropyrimidin-4-one]
8.00 to 11.00	CCOCc1nc(=O)c(C(=O)N2CCC(c3ccc(F)cc3)C2)c(O)n1-c1c(OC)cccc1OC (single isomer, unassigned) [Example 57, 1-(2,6-dimethoxyphenyl)-2-(ethoxymethyl)-5-[3-(4-fluorophenyl)pyrrolidine-1-carbonyl]-6-hydroxy-1,4-dihydropyrimidin-4-one]
8.00 to 11.00	CCCCc1nc(=O)c(C(=O)N2CCC(Cc3ccccc3)C2)c(O)n1-c1c(OC)cccc1OC (racemic) [Example 73, 5-(3-benzylpyrrolidine-1-carbonyl)-2-butyl-1-(2,6-dimethoxyphenyl)-6-hydroxy-1,4-dihydropyrimidin-4-one]
8.00 to 11.00	COc1cccc(OC)c1-n1c(CCC2CC2)nc(=O)c(C(=O)N2CCC(c3ncccc3F)C2)c1O (single isomer, unassigned) [Example 178, 2-(2-cyclopropylethyl)-1-(2,6-dimethoxyphenyl)-5-[3-(3-fluoropyridin-2-yl)pyrrolidine-1-carbonyl]-6-hydroxy-1,4-dihydropyrimidin-4-one]
